What is called IC50 is the midpoint of a concentration-inhibition curve.

The test system of the assay is HCT 116 cells transfected with a luciferase reporter under the control of an HIF-responsive sequence. Kind of assay: HIF-luciferase assay. The format is cell-based. Conditions: Homo sapiens; HCT 116 HIF-luciferase reporter cells, hypoxia chamber (1% O2), 24 h; in some cases means of up to four individual determinations. The protocol:
B-1. HIF-Luciferase Assay
HCT 116 cells were transfected in a stable manner with a plasmid which contained a luciferase reporter under the control of an HIF-responsive sequence. These cells were sown in microtitre plates [20000 cells/cavity in RPMI 1640 medium with 10% foetal calf serum (FCS) and 100 μg/ml of hygromycin]. Incubation was carried out overnight under standard conditions (5% CO2, 21% O2, 37° C., moistened). The following morning the cells were incubated with various concentrations of the test substances (0-10 μmol/l) in a hypoxia chamber (1% O2). After 24 h, Bright Glo reagent (Promega, Wisconsin, USA) was added in accordance with the manufacturer's instructions, and after 5 min the luminescence was measured. Cells which were incubated under normoxia served as background controls.
(In general: Reporter assays use an easily measured gene product as a stand-in for the process of interest.)
For the compound `O=C(c1cccc(Cn2nc(-c3nc(-c4ccc(OC(F)(F)F)cc4)no3)ccc2=O)c1)N1CCC1` [Example 74, 2-[3-(Azetidin-1-ylcarbonyl)benzyl]-6-{3-[4-(trifluoromethoxy)phenyl]-1,2,4-oxadiazol-5-yl}pyridazin-3(2H)-one], the IC50 worked out at 10 nM.

Turning to `O=C(c1cccc(Cn2nc(-c3nc(-c4ccc(OC(F)(F)F)cc4)no3)ccc2=O)c1)N1CC(O)C1` [Example 76, 2-{3-[(3-Hydroxyazetidin-1-yl)carbonyl]benzyl}-6-{3-[4-(trifluoromethoxy)phenyl]-1,2,4-oxadiazol-5-yl}pyridazin-3(2H)-one], the concentration for half-maximal inhibition (IC50) came to 20 nM.

In the case of `O=C(c1cccc(Cn2nc(-c3nc(-c4ccc(OC(F)(F)F)cc4)no3)ccc2=O)c1)N1CCCC1` [Example 78, 2-[3-(Pyrrolidin-1-ylcarbonyl)benzyl]-6-{3-[4-(trifluoromethoxy)phenyl]-1,2,4-oxadiazol-5-yl}pyridazin-3(2H)-one], the IC50 is 5 nM.

With `O=C(c1cccc(Cn2nc(-c3nc(-c4ccc(OC(F)(F)F)cc4)no3)ccc2=O)c1)N1CCCO1` [Example 80, 2-[3-(1,2-Oxazolidin-2-ylcarbonyl)benzyl]-6-{3-[4-(trifluoromethoxy)phenyl]-1,2,4-oxadiazol-5-yl}pyridazin-3(2H)-one], 5 nM corresponded to half-maximal inhibition (IC50).

The compound `O=C(c1cccc(Cn2nc(-c3nc(-c4ccc(OC(F)(F)F)cc4)no3)ccc2=O)c1)N1CCC(O)CC1` [Example 82, 2-{3-[(4-Hydroxypiperidin-1-yl)carbonyl]benzyl}-6-{3-[4-(trifluoromethoxy)phenyl]-1,2,4-oxadiazol-5-yl}pyridazin-3(2H)-one] gave an IC50 of 15 nM.

`O=C(c1cccc(Cn2nc(-c3nc(-c4ccc(OC(F)(F)F)cc4)no3)ccc2=O)c1)N1CCOCC1` [Example 84, 2-[3-(Morpholin-4-ylcarbonyl)benzyl]-6-{3-[4-(trifluoromethoxy)phenyl]-1,2,4-oxadiazol-5-yl}pyridazin-3(2H)-one] came in with an IC50 of 20 nM.

`CN1CCN(C(=O)c2cccc(Cn3nc(-c4nc(-c5ccc(C(C)(C)C(F)(F)F)cc5)no4)ccc3=O)c2)CC1` [Example 86, 2-{3-[(4-Methylpiperazin-1-yl)carbonyl]benzyl}-6-{3-[4-(1,1,1-trifluoro-2-methylpropan-2-yl)phenyl]-1,2,4-oxadiazol-5-yl}pyridazin-3(2H)-one] came in with an IC50 of 40 nM. This IC50 lies about 2-fold higher than the previous one.

Consider `O=C(c1cccc(Cn2nc(-c3nc(-c4ccc(OC(F)(F)F)cc4)no3)ccc2=O)c1)N1CCN(C2CC2)CC1` [Example 87, 2-{3-[(4-Cyclopropylpiperazin-1-yl)carbonyl]benzyl}-6-{3-[4-(trifluoromethoxy)phenyl]-1,2,4-oxadiazol-5-yl}pyridazin-3(2H)-one], for which the IC50 is 5 nM.

With `CC(=O)OC1(c2cccc(Cn3nc(-c4nc(-c5ccc(OC(F)(F)F)cc5)no4)ccc3=O)c2)CC1` [Example 89, 1-(3-{[6-oxo-3-{3-[4-(trifluoromethoxy)phenyl]-1,2,4-oxadiazol-5-yl}pyridazin-1(6H)-yl]methyl}phenyl)cyclopropyl acetate], it took 5 nM to reach half-maximal inhibition (IC50).

Compound `CC(C)(O)Cc1cccc(Cn2nc(-c3nc(-c4ccc(OC(F)(F)F)cc4)no3)ccc2=O)c1` [Example 90, 2-[3-(2-Hydroxy-2-methylpropyl)benzyl]-6-{3-[4-(trifluoromethoxy)phenyl]-1,2,4-oxadiazol-5-yl}pyridazin-3(2H)-one] displayed a half-maximal inhibitory concentration (IC50) of 6 nM.

Compound `CC(C)(O)Cc1cccc(Cn2nc(-c3nc(-c4ccc(C(C)(C)C(F)(F)F)cc4)no3)ccc2=O)c1` [Example 91, 2-[3-(2-Hydroxy-2-methylpropyl)benzyl]-6-{3-[4-(1,1,1-trifluoro-2-methylpropan-2-yl)phenyl]-1,2,4-oxadiazol-5-yl}pyridazin-3(2H)-one] yielded an IC50 of 40 nM.

`O=c1ccc(-c2nc(-c3ccc(OC(F)(F)F)cc3)no2)nn1Cc1cccc(C2(CO)CC2)c1` [Example 92, 2-{3-[1-(Hydroxymethyl)cyclopropyl]benzyl}-6-{3-[4-(trifluoromethoxy)phenyl]-1,2,4-oxadiazol-5-yl}pyridazin-3(2H)-one] registered a concentration for half-maximal inhibition (IC50) of 10 nM.

Consider `CC(C)(c1ccc(-c2noc(-c3ccc(=O)n(Cc4cccc(C5(CO)CC5)c4)n3)n2)cc1)C(F)(F)F` [Example 93, 2-{3-[1-(Hydroxymethyl)cyclopropyl]benzyl}-6-{3-[4-(1,1,1-trifluoro-2-methylpropan-2-yl)phenyl]-1,2,4-oxadiazol-5-yl}pyridazin-3(2H)-one], for which inhibition was half-maximal at 25 nM (IC50).

As to `N#CC1CCN(c2cc(Cn3nc(-c4nc(-c5ccc(OC(F)(F)F)cc5)no4)ccc3=O)ccn2)CC1` [Example 94, 1-(4-{[6-oxo-3-{3-[4-(trifluoromethoxy)phenyl]-1,2,4-oxadiazol-5-yl}pyridazin-1(6H)-yl]methyl}pyridin-2-yl)piperidine-4-carbonitrile], the IC50 was 20 nM.

With `CC(C)(c1ccc(-c2noc(-c3ccc(=O)n(Cc4ccnc(N5CCC(C#N)CC5)c4)n3)n2)cc1)C(F)(F)F` [Example 95, 1-(4-{[6-oxo-3-{3-[4-(1,1,1-trifluoro-2-methylpropan-2-yl)phenyl]-1,2,4-oxadiazol-5-yl}pyridazin-1(6H)-yl]methyl}pyridin-2-yl)piperidine-4-carbonitrile], 40 nM corresponded to half-maximal inhibition (IC50). Compared with the last compound, the IC50 is about 2-fold higher.

On to `O=c1ccc(-c2nc(-c3ccc(OC(F)(F)F)cc3)no2)nn1Cc1ccnc(N2CCN(C3CC3)CC2)c1` [Example 96, 2-{[2-(4-Cyclopropylpiperazin-1-yl)pyridin-4-yl]methyl}-6-{3-[4-(trifluoromethoxy)phenyl]-1,2,4-oxadiazol-5-yl}pyridazin-3(2H)-one], for which the IC50 came out at 1.5 nM.

`CC(C)(c1ccc(-c2noc(-c3ccc(=O)n(Cc4ccnc(N5CCN(C6CC6)CC5)c4)n3)n2)cc1)C(F)(F)F` [Example 97, 2-{[2-(4-Cyclopropylpiperazin-1-yl)pyridin-4-yl]methyl}-6-{3-[4-(1,1,1-trifluoro-2-methylpropan-2-yl)phenyl]-1,2,4-oxadiazol-5-yl}pyridazin-3(2H)-one]: the IC50 amounted to 3 nM. Against the preceding compound, the IC50 is about 2-fold higher.

Take `CNc1ccc(Cn2nc(-c3nc(-c4ccc(OC(F)(F)F)cc4)no3)ccc2=O)cn1` [Example 100, 2-{[6-(Methylamino)pyridin-3-yl]methyl}-6-{3-[4-(trifluoromethoxy)phenyl]-1,2,4-oxadiazol-5-yl}pyridazin-3(2H)-one]: half-maximal inhibition (IC50) was put at 6 nM.

`CNc1ccc(Cn2nc(-c3nc(-c4ccc(C(C)(C)C(F)(F)F)cc4)no3)ccc2=O)cn1` [Example 101, 2-{[6-(Methylamino)pyridin-3-yl]methyl}-6-{3-[4-(1,1,1-trifluoro-2-methylpropan-2-yl)phenyl]-1,2,4-oxadiazol-5-yl}pyridazin-3(2H)-one] yielded a half-maximal inhibitory concentration (IC50) of 15 nM. This IC50 lies about 2.5-fold higher than the previous one.

For the origin of these results see patent US20140329797A1, “SUBSTITUTED OXADIAZOLYL PYRIDINONES AND OXADIAZOLYL PYRIDAZINONES AS HIF INHIBITORS” (Bayer Intellectual Property GmbH, priority 2011, published 2014).
